The target of the assay is T1, CFTR ΔF508 (Homo sapiens, UniProt P13569, DEL508-508).
T1 construct: bronchial epithelial cells isolated from CF patients homozygous for the CFTR ΔF508 mutation; McGill University; Asterand; University of North Carolina hAEC-CF; host or cells: primary human bronchial epithelial cells from CF patients homozygous for ΔF508
Kind of assay: Chronic TECC assay on primary bronchial epithelial cells (corrector, co-corrector and potentiator). The format is cell-based. Conditions: chronic TECC, with co-corrector and potentiator, 24 hours. As to the method: Primary Bronchial Epithelial Cells Protocol
The TECC (Tranepithelial Clamp Circuit, EP-design) assay measures the functionality of the cystic fibrosis Transmembrane Conductance regulator (CFTR) by measuring the short circuit current (Isc) generated over the basolateral and apical membrane of lung epithelial cells. In TECC the transepithelial potential PD and transepithelial resistance (Rt)) are measured in an open circuit and transformed to Ieq using Ohm's law. 24 Wells can be measured simultaneously allowing a higher throughput compared to Ussing chambers.
For this purpose, bronchial epithelial cells isolated from CF patients homozygous for the CFTR ΔF508 mutation (hAEC-CF, Epithelix, Geneva, Switzerland; McGill University, Montreal, Qc; Asterand, Detroit, Mich.; University of North Carolina, Chapel Hill, N.C.) are plated on type IV collagen-coated Transwell® supports (Costar). Human airway epithelia are generated by provision of an air-liquid interface for 21 days to form well-differentiated polarized cultures that resemble in vivo pseudo-stratified ciliated epithelium (Fulcher, M. L., Gabriel, S., Burns, K. A., Yankaskas, J. R., Randell, S. H., 2005. Well-differentiated human airway epithelial cell cultures. Methods Mol. Med. 107, 183-206). The differentiated cells are treated with test corrector compound(s) (corrector alone or in combination with co-corrector, 4-[(2R,4R)-4-({[1-(2,2-difluoro-1,3-benzodioxol-5-yl)cyclopropyl]carbonyl}amino)-7-methoxy-3,4-dihydro-2H-chromen-2-yl]benzoic acid (G924806/A-1618261) (“acute”) or test corrector compounds, co-corrector and potentiator, N-(3-carbamoyl-5,5,7,7-tetramethyl-4,7-dihydro-5H-thieno[2,3-c]pyran-2-yl)-1H-pyrazole-5-carboxamide GLPG1837, (“chronic”) for 24 hours basolaterally to allow sufficient expression of properly folded CFTR protein on the membrane. All compound plates contained negative controls (DMSO) and positive controls (0.15 μM, 4-[(2R,4R)-4-({[1-(2,2-difluoro-1,3-benzodioxol-5-yl)cyclopropyl]carbonyl}amino)-7-(difluoromethoxy)-3,4-dihydro-2H-chromen-2-yl]benzoic acid).
For electrophysiological recording of the “chronic” experiments, the human airway epithelia are mounted in the TECC heating plate for electrophysiological measurement and kept at 37° C. The epithelia are bathed in a NaCl-Ringer solution (120 mM NaCl, 25 mM NaHCO3, 1.2 mM CaCl2, 1.2 mM MgCl2, 0.8 mM KH2PO4, 0.8 mM K2HPO4, pH 7.4, 5 mM glucose) on both the basolateral and apical sides. Test compounds (corrector, co-corrector, 4-[(2R,4R)-4-({[1-(2,2-difluoro-1,3-benzodioxol-5-yl)cyclopropyl]carbonyl}amino)-7-(difluoromethoxy)-3,4-dihydro-2H-chromen-2-yl]benzoic acid, and potentiator, N-(3-carbamoyl-5,5,7,7-tetramethyl-4,7-dihydro-5H-thieno[2,3-c]pyran-2-yl)-1H-pyrazole-5-carboxamide), are re-added to the recording solution prior to measurement. Apical amiloride is used to inhibit the endogenous ENaC currents while forskolin is applied on both apical and basolateral side to stimulate CFTR. Measurements are done during a 20 minute timeframe with recordings every 2 minutes. The increase in Ieq is used as a measure for the increased CFTR activity, EC50 values can be generated by measuring impact of different concentrations of compound on Ieq on primary cells, for this purpose each transwell is treated with a different compound concentration. Inhibitor-172, an inhibitor specific for CFTR, is used to test the specificity of the tested compounds. Raw data were normalized to percentage activity values using the equation: 100×(Sample−Negative control)/(Positive control−Negative Control).

[1] abbreviates: AUC = full area under the curve upon forskolin stimulation.
Setting [2] is: AUC = full area under the curve upon forskolin stimulation, read-out: EC50 (nM) (AUC).
The mark [3] stands for this setting: Ieq = calculations based on the maximum current.
Setting [4] is: Ieq = calculations based on the maximum current, read-out: EC50 (nM) (Ieq).

Like-named read-outs stand apart in the source and are kept apart here. Bounds are passed on as bounds.

T1 sequence (P13569 with tags, fused parts or gaps DEL508-508): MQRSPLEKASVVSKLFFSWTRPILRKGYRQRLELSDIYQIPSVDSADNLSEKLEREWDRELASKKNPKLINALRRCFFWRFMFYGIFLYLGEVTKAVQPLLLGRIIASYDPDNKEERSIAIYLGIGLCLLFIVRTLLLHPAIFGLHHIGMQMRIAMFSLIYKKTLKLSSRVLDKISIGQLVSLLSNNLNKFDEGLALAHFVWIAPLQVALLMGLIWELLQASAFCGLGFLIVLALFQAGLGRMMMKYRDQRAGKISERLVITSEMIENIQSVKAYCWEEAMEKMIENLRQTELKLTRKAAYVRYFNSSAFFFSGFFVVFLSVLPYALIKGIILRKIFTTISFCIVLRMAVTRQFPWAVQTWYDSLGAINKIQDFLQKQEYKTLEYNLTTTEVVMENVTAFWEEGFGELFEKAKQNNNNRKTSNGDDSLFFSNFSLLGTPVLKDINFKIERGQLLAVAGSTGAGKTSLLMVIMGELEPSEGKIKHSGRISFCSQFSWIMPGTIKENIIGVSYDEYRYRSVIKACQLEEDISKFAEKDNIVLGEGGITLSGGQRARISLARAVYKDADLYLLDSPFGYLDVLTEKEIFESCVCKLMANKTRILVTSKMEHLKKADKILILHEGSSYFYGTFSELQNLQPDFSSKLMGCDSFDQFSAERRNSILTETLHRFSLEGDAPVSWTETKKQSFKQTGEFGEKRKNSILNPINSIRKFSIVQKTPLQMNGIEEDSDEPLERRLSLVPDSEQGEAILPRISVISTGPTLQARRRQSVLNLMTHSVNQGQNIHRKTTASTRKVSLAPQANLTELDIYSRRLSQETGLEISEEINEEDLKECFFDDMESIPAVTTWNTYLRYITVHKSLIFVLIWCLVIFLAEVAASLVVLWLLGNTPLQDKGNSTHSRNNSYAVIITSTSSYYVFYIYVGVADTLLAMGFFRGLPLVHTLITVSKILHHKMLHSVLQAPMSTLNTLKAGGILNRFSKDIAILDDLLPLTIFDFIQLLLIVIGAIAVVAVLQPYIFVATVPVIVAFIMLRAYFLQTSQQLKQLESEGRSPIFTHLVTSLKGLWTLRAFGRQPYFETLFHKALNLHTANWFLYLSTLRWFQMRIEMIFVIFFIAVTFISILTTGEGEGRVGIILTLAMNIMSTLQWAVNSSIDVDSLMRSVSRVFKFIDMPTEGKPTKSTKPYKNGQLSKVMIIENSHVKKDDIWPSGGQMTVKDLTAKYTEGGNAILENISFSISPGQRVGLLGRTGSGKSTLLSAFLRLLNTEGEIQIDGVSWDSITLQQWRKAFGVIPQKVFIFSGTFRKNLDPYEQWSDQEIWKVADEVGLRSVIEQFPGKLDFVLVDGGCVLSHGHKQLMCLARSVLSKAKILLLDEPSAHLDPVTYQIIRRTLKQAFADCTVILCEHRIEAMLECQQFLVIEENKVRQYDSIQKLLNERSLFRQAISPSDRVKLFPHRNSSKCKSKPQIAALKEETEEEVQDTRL

For the compound `O=C(O)c1cc(N2CCC(N3CCC(F)CC3)CC2)c2c(C3CCC3)nn(-c3ccc(F)cc3)c2n1` [compound 849, 3-cyclobutyl-4-(4-fluoro[1,4′-bipiperidin]-1′-yl)-1-(4-fluorophenyl)-1H-pyrazolo[3,4-b]pyridine-6-carboxylic acid], the “% Activity at 1 μM (AUC**)” value under setting [1] came to 256.6667%. The EC50 under setting [2] worked out at 15.6 nM.
As to `CC(C)OC(=O)N1CC[C@@H]2CN(c3cc(C(=O)O)nc4c3c(C3CCC3)nn4-c3ccccc3)CC[C@@H]21` (racemic) [compound 610, rac-3-cyclobutyl-1-phenyl-4-[(3aR,7aS)-1-{[(propan-2-yl)oxy]carbonyl}octahydro-5H-pyrrolo[3,2-c]pyridin-5-yl]-1H-pyrazolo[3,4-b]pyridine-6-carboxylic acid], the “% Activity at 1 μM (AUC**)” value under setting [1] was determined as 471%.
Still for that read-out and setting: next, `O=C(O)c1cc(N2CCC(N3CCCCC3)CC2)c2c(C3CCC3)nn(-c3ccccc3)c2n1` [compound 576, 4-([1,4′-bipiperidin]-1′-yl)-3-cyclobutyl-1-phenyl-1H-pyrazolo[3,4-b]pyridine-6-carboxylic acid]: 183%.
Turning to `COC1CCN(c2cc(C(=O)O)nc3c2c(C(C)C)nn3-c2cccc(C)c2)CC1` [compound 192, 4-(4-methoxypiperidin-1-yl)-1-(3-methylphenyl)-3-(propan-2-yl)-1H-pyrazolo[3,4-b]pyridine-6-carboxylic acid], the “% Activity at 1 μM (Ieq*)” value under setting [3] is given as 235%. In addition, the EC50 under setting [4] was under 30 nM.
Consider `COCCC1CCN(c2cc(C(=O)O)nc3c2c(C(C)C)nn3-c2cccc(C)c2)CC1` [compound 228, 4-[4-(2-methoxyethyl)piperidin-1-yl]-1-(3-methylphenyl)-3-(propan-2-yl)-1H-pyrazolo[3,4-b]pyridine-6-carboxylic acid], for which the “% Activity at 1 μM (Ieq*)” value under setting [3] is recorded as 280%. Also, under setting [4], the EC50 is under 30 nM.
Consider `CC(C)Oc1nn(C2CCCCC2)c2nc(C(=O)O)cc(-c3ccc(CN4CC(N(C)C)C4)cc3)c12` [compound 927, 1-cyclohexyl-4-(4-{[3-(dimethylamino)azetidin-1-yl]methyl}phenyl)-3-[(propan-2-yl)oxy]-1H-pyrazolo[3,4-b]pyridine-6-carboxylic acid], for which, under setting [2], the EC50 is 1940 nM.
For `CC(C)c1nn(-c2ccnc(N3CCOCC3)c2)c2nc(C(=O)O)cc(-c3ccc(N4CCOCC4)cc3)c12` [compound 201, 4-[4-(morpholin-4-yl)phenyl]-1-[2-(morpholin-4-yl)pyridin-4-yl]-3-(propan-2-yl)-1H-pyrazolo[3,4-b]pyridine-6-carboxylic acid], under setting [1], the “% Activity at 1 μM (AUC**)” value was 254%. For the same compound, the EC50 under setting [2] was under 30 nM.
With `CC(F)(F)c1cccc(-n2nc(C3CCC3)c3c(N4CCC(N5CCOCC5)CC4)cc(C(=O)O)nc32)c1` [compound 915], the “% Activity at 3 μM (AUC)” value under setting [1] is reported as 423.3333%.
As for `O=C(O)c1cc(N2CCC(N3CCN(C4CC4)CC3)CC2)c2c(C3CCC3)nn(-c3ccccc3)c2n1` [compound 738, 3-cyclobutyl-4-[4-(4-cyclopropylpiperazin-1-yl)piperidin-1-yl]-1-phenyl-1H-pyrazolo[3,4-b]pyridine-6-carboxylic acid], under setting [1], the “% Activity at 1 μM (AUC**)” value was found to be 230%. Besides, the EC50 under setting [2] came to 23 nM.
Regarding `Cc1cccc(-n2nc(C(C)C)c3c(N4CCC(C#N)CC4)cc(C(=O)O)nc32)c1` [compound 191, 4-(4-cyanopiperidin-1-yl)-1-(3-methylphenyl)-3-(propan-2-yl)-1H-pyrazolo[3,4-b]pyridine-6-carboxylic acid], the “% Activity at 1 μM (Ieq*)” value under setting [3] is 220%. In addition, the EC50 under setting [4] was 50 nM.
In the case of `CC1CCN(CCC2CCN(c3cc(C(=O)O)nc4c3c(C3CCC3)nn4-c3ccccc3)CC2)CC1` [compound 687, 3-cyclobutyl-4-{4-[2-(4-methylpiperidin-1-yl)ethyl]piperidin-1-yl}-1-phenyl-1H-pyrazolo[3,4-b]pyridine-6-carboxylic acid], the “% Activity at 1 μM (AUC**)” value under setting [1] was 263.3333%. In addition, the EC50 under setting [2] came to 53.5 nM.
Regarding `O=C(O)c1cc(N2CCC(N3CCOCC3)CC2)c2c(C3CCC3)nn(-c3cccc(OC(F)F)c3)c2n1` [compound 910, 3-cyclobutyl-1-[3-(difluoromethoxy)phenyl]-4-[4-(morpholin-4-yl)piperidin-1-yl]-1H-pyrazolo[3,4-b]pyridine-6-carboxylic acid], the “% Activity at 3 μM (AUC)” value under setting [1] is listed as 531.5026%.
`COCCN1CCC2(CC1)CCN(c1cc(C(=O)O)nc3c1c(C1CCC1)nn3-c1ccc(F)cc1)CC2` [compound 897, 3-cyclobutyl-1-(4-fluorophenyl)-4-[9-(2-methoxyethyl)-3,9-diazaspiro[5.5]undecan-3-yl]-1H-pyrazolo[3,4-b]pyridine-6-carboxylic acid]: under setting [1], the “% Activity at 1 μM (AUC**)” value is given as 375%.
Same read-out and setting: next, `O=C(O)c1cc(N2CCC(CCN3CCCC3)CC2)c2c(C3CCC3)nn(-c3ccccc3)c2n1` [compound 574, 3-cyclobutyl-1-phenyl-4-{4-[2-(pyrrolidin-1-yl)ethyl]piperidin-1-yl}-1H-pyrazolo[3,4-b]pyridine-6-carboxylic acid]: 190%.
In the case of `CC(C)N1CCC2(CCN(c3cc(C(=O)O)nc4c3c(C3CCC3)nn4-c3ccc(F)cc3)CC2)CC1` [compound 890, 3-cyclobutyl-1-(4-fluorophenyl)-4-[9-(propan-2-yl)-3,9-diazaspiro[5.5]undecan-3-yl]-1H-pyrazolo[3,4-b]pyridine-6-carboxylic acid], the “% Activity at 1 μM (AUC**)” value under setting [1] came to 366.6667%.
On the same count and under the same terms, next, `O=C(O)c1cc(N2CCC(CCN3CCOCC3)CC2)c2c(C3CCC3)nn(-c3ccc(F)cc3)c2n1` [compound 810, 3-cyclobutyl-1-(4-fluorophenyl)-4-{4-[2-(morpholin-4-yl)ethyl]piperidin-1-yl}-1H-pyrazolo[3,4-b]pyridine-6-carboxylic acid]: 191.4768%; `COC[C@H]1CCN(CC2CCN(c3cc(C(=O)O)nc4c3c(C3CCC3)nn4-c3ccccc3)CC2)C1` [compound 804, 3-cyclobutyl-4-(4-{[(3S)-3-(methoxymethyl)pyrrolidin-1-yl]methyl}piperidin-1-yl)-1-phenyl-1H-pyrazolo[3,4-b]pyridine-6-carboxylic acid]: 290%.
Turning to `CC(C)c1nn(-c2ccc(F)cc2)c2nc(C(=O)O)cc(N3CCC(N4CCN(C5CC5)CC4)CC3)c12` [compound 754, 4-[4-(4-cyclopropylpiperazin-1-yl)piperidin-1-yl]-1-(4-fluorophenyl)-3-(propan-2-yl)-1H-pyrazolo[3,4-b]pyridine-6-carboxylic acid], the “% Activity at 1 μM (AUC**)” value under setting [1] is 190%.
As to `O=C(O)c1cc(N2CCC(N3CCC(O)CC3)CC2)c2c(C3CCC3)nn(-c3ccc(F)cc3)c2n1` [compound 898, 3-cyclobutyl-1-(4-fluorophenyl)-4-(4-hydroxy[1,4′-bipiperidin]-1′-yl)-1H-pyrazolo[3,4-b]pyridine-6-carboxylic acid], under setting [1], the “% Activity at 3 μM (AUC)” value is listed as 150.7853%. Under setting [2], the EC50 is 2640 nM.
With `COCCN1CCN(c2ccc(-c3cc(C(=O)O)nc4c3c(C3CCC3)nn4C3CCCCC3)cn2)CC1` [compound 878, 3-cyclobutyl-1-cyclohexyl-4-{6-[4-(2-methoxyethyl)piperazin-1-yl]pyridin-3-yl}-1H-pyrazolo[3,4-b]pyridine-6-carboxylic acid], the “% Activity at 1 μM (AUC**)” value under setting [1] came to 170%.

In general, EC50 refers to the midpoint of the concentration-response curve.

(Values after patent US9796711B2, “Substituted pyrazolo[3,4-b]pyridin-6-carboxylic acids and method of use” (AbbVie S.àr.l., priority 2015, dated 2017).)
